The record followed here is paper PMC10340532, “MCAK Inhibitors Induce Aneuploidy in Triple-Negative Breast Cancer Models” (Cancers, 2023).

The target in the assay is T1, MCAK (Homo sapiens, UniProt Q99661).
T1 construct: gene KIF2C
T1 sequence (Q99661 2-725): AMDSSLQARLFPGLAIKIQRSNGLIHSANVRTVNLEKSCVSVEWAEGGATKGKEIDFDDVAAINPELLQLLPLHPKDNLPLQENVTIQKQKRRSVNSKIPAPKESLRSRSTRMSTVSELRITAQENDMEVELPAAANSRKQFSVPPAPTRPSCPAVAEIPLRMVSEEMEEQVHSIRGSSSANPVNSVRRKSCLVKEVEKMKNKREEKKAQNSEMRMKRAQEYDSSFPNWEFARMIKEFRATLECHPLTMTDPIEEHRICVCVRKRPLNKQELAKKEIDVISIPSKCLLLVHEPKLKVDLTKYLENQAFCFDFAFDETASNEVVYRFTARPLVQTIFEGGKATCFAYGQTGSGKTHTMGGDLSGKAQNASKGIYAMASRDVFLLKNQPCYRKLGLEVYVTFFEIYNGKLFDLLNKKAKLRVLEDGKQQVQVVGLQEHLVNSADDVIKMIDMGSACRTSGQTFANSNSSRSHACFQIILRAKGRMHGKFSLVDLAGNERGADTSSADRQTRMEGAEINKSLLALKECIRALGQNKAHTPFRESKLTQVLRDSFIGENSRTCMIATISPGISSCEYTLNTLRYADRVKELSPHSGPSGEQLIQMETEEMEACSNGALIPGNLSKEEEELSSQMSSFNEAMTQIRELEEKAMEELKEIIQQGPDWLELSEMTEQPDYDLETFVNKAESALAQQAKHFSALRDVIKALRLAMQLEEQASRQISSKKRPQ
The assay is described as follows: sedimentation-based microtubule depolymerization assay with purified FMCAK; FRET conformation screen, FCP counter screen. The class given is biochemical. (The purpose of a counterscreen is to sort out artefacts and off-target activity.)

As to `CC(C)c1noc(C2CCCN2C(=O)c2cc(=O)c3ccccc3o2)n1` (stereo not shown) [H9, 2042 H9], the “sedimentation-based microtubule depolymerization assay with purified FMCAK; FRET” value is 5 µM.
